Where two headings read alike, the source gives them in different places.
Experiments:
[1] = test system: Myotonic Dystrophy 1 affected patient fibroblasts (Coriel GM04602; 1600 CTG repeats); assay: DM1 foci reduction assay (EC50 assay; CAG10-Cy3 FISH, foci per nucleus); assay type: cell-based
Procedure, shortened: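 GM04602 DM1 patient fibroblasts (1600 CTG repeats) seeded 24 h, then treated 48 h at 37 °C with an 8-point 1:3 dose series from 3 μM. Cells PFA-fixed, ethanol-permeabilized and hybridized overnight with 5 nM CAG10-Cy3 probe, DAPI counterstained. Imaged at 20×, 4 fields per well, as average foci per nucleus.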

F35T cells = assay: Foci reduction in FECD (CAG10-Cy3 FISH, foci per nucleus); assay type: cell-based
Procedure, shortened: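 F35T cells, 5000 per well, were treated for 48 h at 37 °C, 5% CO2 in an 8-point dose response. Cells were then fixed in 4% PFA, permeabilized in 70% ethanol and hybridized overnight at 37 °C with a CAG10-Cy3 probe in 30% formamide/2×SSC. After DAPI staining, imaging gave foci per nucleus.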

[2] = Homo sapiens, Fibroblast; DM1 patient fibroblasts, 48 h treatment, foci per nucleus; read-out: DM1 EC50, 48 h
[3] = F35T cells, 48 h treatment, foci per nucleus; read-out: FECD EC50, 48 h
[4] = Homo sapiens, Fibroblast; DM1 patient fibroblasts, foci per nucleus, 48 h treatment; read-out: DM1 EC50, 48 h
[5] = F35T cells, foci per nucleus, 48 h treatment; read-out: FECD EC50, 48 h

Compound	EC50 [1, 2]	EC50 (F35T cells; [3])	EC50 [1, 4]	EC50 (F35T cells; [5])
Cn1cc(NC(=O)c2nc(NC(=O)CCNC(=O)c3cc(NC(=O)c4nccn4C)cn3C)cn2C)cc1C(=O)NCCCC(=O)Nc1cn(C)c(C(=O)NCCC(=O)Nc2cc(C(=O)Nc3cn(C)c(C(=O)NCCC(=O)NCCOCCOCCOCCOCCOc4ccc(N)cc4)n3)n(C)c2)n1 [Compound B-12]	100 to 500 nM	100 to 500 nM		
Cn1cc(NC(=O)c2nccn2C)cc1C(=O)NCCC(=O)Nc1cn(C)c(C(=O)Nc2cc(C(=O)NC[C@H](N)CC(=O)Nc3cn(C)c(C(=O)NCCC(=O)Nc4cc(C(=O)Nc5cn(C)c(C(=O)NCCC(=O)N6CCCCC6)n5)n(C)c4)n3)n(C)c2)n1 [Compound B-418]			100 to 500 nM	< 100 nM
Cn1cc(NC(=O)c2nc(NC(=O)CCNC(=O)c3cc(NC(=O)c4nccn4C)cn3C)cn2C)cc1C(=O)NCCCC(=O)Nc1cn(C)c(C(=O)NCCC(=O)Nc2cc(C(=O)Nc3cn(C)c(C(=O)NCCC(=O)N4CC(c5cnc(CNC(=O)c6ccc(C(C)(C)C)cc6)[nH]5)C4)n3)n(C)c2)n1 [Compound B-71]	100 to 500 nM	100 to 500 nM		
CC(=O)N1CCC(CN2CCN(C(=O)CCNC(=O)c3nc(NC(=O)c4cc(NC(=O)CCNC(=O)c5nc(NC(=O)CCCNC(=O)c6cc(NC(=O)c7nc(NC(=O)CCNC(=O)c8cc(NC(=O)c9nccn9C)cn8C)cn7C)cn6C)cn5C)cn4C)cn3C)CC2)CC1 [Compound B-115]	100 to 500 nM	500 to 1000 nM		
CN(C)CCCCn1cc(NC(=O)c2nc(NC(=O)CCNC(=O)c3cc(NC(=O)c4nccn4C)cn3C)cn2C)cc1C(=O)NCCCC(=O)Nc1cn(C)c(C(=O)NCCC(=O)Nc2cc(C(=O)Nc3cn(C)c(C(=O)NCCC(=O)N4CCCCC4)n3)n(C)c2)n1 [Compound B-428]			< 100 nM	< 100 nM
CCCNC(=O)c1nc(NC(=O)c2cc(NC(=O)CCNC(=O)c3nc(NC(=O)CCCNC(=O)c4cc(NC(=O)c5nc(NC(=O)CCNC(=O)c6cc(NC(=O)c7nccn7C)cn6C)cn5C)cn4C)cn3C)cn2C)cn1C [Compound B-43]	< 100 nM	< 100 nM		
CCCNC(=O)CCNC(=O)c1nc(NC(=O)c2cc(NC(=O)CCNC(=O)c3nc(NC(=O)CCCNC(=O)c4cc(NC(=O)c5nc(NC(=O)CCNC(=O)c6cc(NC(=O)c7nccn7C)cn6C)cn5C)cn4CCCO)cn3C)cn2C)cn1C [Compound B-431]			< 100 nM	< 100 nM
CSCCCC(=O)N1CCC(C#CC#CC2CCN(CCOCCOCCOCCNC(=O)CCNC(=O)c3nc(NC(=O)c4cc(NC(=O)CCNC(=O)c5nc(NC(=O)CCCNC(=O)c6cc(NC(=O)c7nc(NC(=O)CCNC(=O)c8cc(NC(=O)c9nccn9C)cn8C)cn7C)cn6C)cn5C)cn4C)cn3C)CC2)CC1 [Compound B-173]	100 to 500 nM	100 to 500 nM		
COC(=O)c1cccc(NCCCCNC(=O)c2nc(NC(=O)c3cc(NC(=O)CCNC(=O)c4nc(NC(=O)CCCNC(=O)c5cc(NC(=O)c6nc(NC(=O)CCNC(=O)c7cc(NC(=O)c8nccn8C)cn7C)cn6C)cn5C)cn4C)cn3C)cn2C)c1 [Compound B-343]	< 100 nM	< 100 nM		
Cn1cc(NC(=O)c2nc(NC(=O)CCNC(=O)c3cc(NC(=O)c4nccn4C)cn3C)cn2C)cc1C(=O)NCCCC(=O)Nc1cn(C)c(C(=O)NCCC(=O)Nc2cc(C(=O)Nc3cn(C)c(C(=O)NCCC(=O)NCCOCCOCCOCCN4CCC(C#CC#CC5CCNCC5)CC4)n3)n(C)c2)n1 [Compound B-18]	100 to 500 nM	100 to 500 nM		
CC(C)C(=O)N1CCC(C#CC#CC2CCN(CCOCCOCCOCCNC(=O)CCNC(=O)c3nc(NC(=O)c4cc(NC(=O)CCNC(=O)c5nc(NC(=O)CCCNC(=O)c6cc(NC(=O)c7nc(NC(=O)CCNC(=O)c8cc(NC(=O)c9nccn9C)cn8C)cn7C)cn6C)cn5C)cn4C)cn3C)CC2)CC1 [Compound B-122]	100 to 500 nM	100 to 500 nM		
CCCNC(=O)CCNC(=O)c1nc(NC(=O)c2cc(NC(=O)CCNC(=O)c3nc(NC(=O)CCCNC(=O)c4cc(NC(=O)c5nc(NC(=O)CCNC(=O)c6cc(NC(=O)c7nccn7C)cn6C)cn5C)cn4CCCCCN(CCOCCOCCOCCOC)CCOCCOCCOCCOC)cn3C)cn2C)cn1C [Compound B-161]	500 to 1000 nM	100 to 500 nM		
Cn1cc(NC(=O)c2nc(NC(=O)CCNC(=O)c3cc(NC(=O)c4nccn4C)cn3C)cn2C)cc1C(=O)NCCCC(=O)Nc1cn(C)c(C(=O)NCCC(=O)Nc2cc(C(=O)Nc3cn(C)c(C(=O)NCCC(N)=O)n3)n(C)c2)n1 [Compound B-307]	100 to 500 nM	< 100 nM		
Cn1cc(NC(=O)c2nc(NC(=O)CCNC(=O)c3cc(NC(=O)c4nccn4C)cn3C)cn2C)cc1C(=O)NCCCC(=O)Nc1cn(C)c(C(=O)NCCC(=O)Nc2cc(C(=O)Nc3cn(C)c(C(=O)NCCC(=O)NC(CO)(CO)CO)n3)n(C)c2)n1 [Compound B-46]	500 to 1000 nM	100 to 500 nM		
COCCOCCOCCOCCN(CCCNC(=O)CCNC(=O)c1nc(NC(=O)c2cc(NC(=O)CCNC(=O)c3nc(NC(=O)CCCNC(=O)c4cc(NC(=O)c5nc(NC(=O)CCNC(=O)c6cc(NC(=O)c7nccn7C)cn6C)cn5C)cn4C)cn3C)cn2C)cn1C)CCOCCOCCOCCOC [Compound B-241]	100 to 500 nM	100 to 500 nM		
CSCCCCN1CCC(C#CC#CC2CCN(CCOCCOCCOCCNC(=O)CCNC(=O)c3nc(NC(=O)c4cc(NC(=O)CCNC(=O)c5nc(NC(=O)CCCNC(=O)c6cc(NC(=O)c7nc(NC(=O)CCNC(=O)c8cc(NC(=O)c9nccn9C)cn8C)cn7C)cn6C)cn5C)cn4C)cn3C)CC2)CC1 [Compound B-174]	100 to 500 nM	100 to 500 nM		
CC(=O)N1CCC(C#CC#CC2CCN(C(=O)CCNC(=O)c3nc(NC(=O)c4cc(NC(=O)CCNC(=O)c5nc(NC(=O)CCCNC(=O)c6cc(NC(=O)c7nc(NC(=O)CCNC(=O)c8cc(NC(=O)c9nccn9C)cn8C)cn7C)cn6CCCCN)cn5C)cn4C)cn3C)CC2)CC1 [Compound B-280]	< 100 nM	< 100 nM		
CCN(CC)CCCC[C@H](NC(C)=O)C(=O)Nc1ccc(OCCOCCOCCOCCOCCNC(=O)CCNC(=O)c2nc(NC(=O)c3cc(NC(=O)CCNC(=O)c4nc(NC(=O)CCCNC(=O)c5cc(NC(=O)c6nc(NC(=O)CCNC(=O)c7cc(NC(=O)c8nccn8C)cn7C)cn6C)cn5C)cn4C)cn3C)cn2C)cc1 [Compound B-146]	100 to 500 nM	100 to 500 nM		
Cn1cc(NC(=O)c2nc(NC(=O)CCNC(=O)c3cc(NC(=O)c4nccn4C)cn3C)cn2C)cc1C(=O)NCCCC(=O)Nc1cn(C)c(C(=O)NCCC(=O)Nc2cc(C(=O)Nc3cn(C)c(C(=O)NCCCN4CCNCC4)n3)n(C)c2)n1 [Compound B-207]	100 to 500 nM	> 1000 nM		
CN(C)CCCn1cc(NC(=O)c2nc(NC(=O)CCNC(=O)c3cc(NC(=O)c4nccn4C)cn3C)cn2C)cc1C(=O)NCCCC(=O)Nc1cn(C)c(C(=O)NCCC(=O)Nc2cc(C(=O)Nc3cn(C)c(C(=O)NCCC(=O)N4CCCCC4)n3)n(C)c2)n1 [Compound B-430]			< 100 nM	< 100 nM
CCCNC(=O)CCNC(=O)c1nc(NC(=O)c2cc(NC(=O)CCNC(=O)c3nc(NC(=O)CCCNC(=O)c4cc(NC(=O)c5nc(NC(=O)CCNC(=O)c6cc(NC(=O)c7nc(N=C(N)N)cn7C)cn6C)cn5C)cn4C)cn3C)cn2C)cn1C [Compound B-325]	500 to 1000 nM	> 1000 nM		
Cn1cc(NC(=O)c2nc(NC(=O)CCNC(=O)c3cc(NC(=O)c4nccn4C)cn3C)cn2C)cc1C(=O)NCCCC(=O)Nc1cn(C)c(C(=O)NCCC(=O)Nc2cc(C(=O)Nc3cn(C)c(C(=O)NCCC(=O)N4CCC(N5CCN(C(=O)OC(C)(C)C)CC5)CC4)n3)n(C)c2)n1 [Compound B-30]	100 to 500 nM	< 100 nM		
CCCNC(=O)CCNC(=O)c1nc(NC(=O)c2cc(NC(=O)CCNC(=O)c3nc(NC(=O)CCCNC(=O)c4cc(NC(=O)c5nc(NC(=O)CCNC(=O)c6cc(NC(=O)c7nccn7C)cn6C)cn5C)cn4C)cn3C)cn2CCCCCCN)cn1C [Compound B-57]	100 to 500 nM	500 to 1000 nM		
COCCOCCOCCOCCOCCOCCNC(=O)CCNC(=O)c1nc(NC(=O)c2cc(NC(=O)CCNC(=O)c3nc(NC(=O)CCCNC(=O)c4cc(NC(=O)c5nc(NC(=O)CCNC(=O)c6cc(NC(C)c7nccn7C)cn6C)cn5C)cn4C)cn3C)cn2C)cn1C (centres unmarked) [Compound B-78]	100 to 500 nM	100 to 500 nM		
CC(=O)NCCOCCOCCOCCOCCOCCNC(=O)CCNC(=O)c1nc(NC(=O)c2cc(NC(=O)CCNC(=O)c3nc(NC(=O)CCCNC(=O)c4cc(NC(=O)c5nc(NC(=O)CCNC(=O)c6cc(NC(C)c7nccn7C)cn6C)cn5C)cn4C)cn3C)cn2C)cn1C (centres unmarked) [Compound B-76]	100 to 500 nM	100 to 500 nM		
CN1CCC(C#CC#CC2CCN(CCOCCOCCOCCNC(=O)CCNC(=O)c3nc(NC(=O)c4cc(NC(=O)CCNC(=O)c5nc(NC(=O)CCCNC(=O)c6cc(NC(=O)c7nc(NC(=O)CCNC(=O)c8cc(NC(=O)c9nccn9C)cn8C)cn7C)cn6C)cn5C)cn4C)cn3C)CC2)CC1 [Compound B-125]	100 to 500 nM	100 to 500 nM		
CC(=O)N1CCC(C#CC#CC2CCN(C(=O)CCNC(=O)c3nc(NC(=O)c4cc(NC(=O)CCNC(=O)c5nc(NC(=O)CCCNC(=O)c6cc(NC(=O)c7nc(NC(=O)CCNC(=O)c8cc(NC(=O)c9nccn9C)cn8C)cn7C)cn6CCN)cn5C)cn4C)cn3C)CC2)CC1 [Compound B-266]	< 100 nM	< 100 nM		
Cn1cc(NC(=O)c2nc(NC(=O)CCNC(=O)c3cc(NC(=O)c4nccn4C)cn3C)cn2C)cc1C(=O)NCCCC(=O)Nc1cn(C)c(C(=O)NCCC(=O)Nc2cc(C(=O)Nc3cn(C)c(C(=O)NCCC(=O)NC(C)(C)C)n3)n(C)c2)n1 [Compound B-47]	100 to 500 nM	100 to 500 nM		
